Structures can show the parent of a compound that is named as a salt.
tested on: recombinant guanylate cyclase reporter cell line; experiment: Action on recombinant guanylate cyclase reporter cell line (MEC); format: cell-based; conditions: in some cases mean values obtained from individual determinations
In short: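 Cell-based reporter assay with recombinant guanylate cyclase expressed in a reporter cell line, per a published method. Activity reported as minimal effective concentration (MEC), in some cases as the mean of individual determinations.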

Row | SMILES | minimal effective concentration
1 | Cc1nc2c(OCc3c(F)cccc3F)cccn2c1C(=O)NC1(CO)CCCC1 [Example 31, 8-[(2,6-difluorobenzyl)oxy]-N-[1-(hydroxymethyl)cyclopentyl]-2-methylimidazo[1,2-a]pyridine-3-carboxamide] | 1 µM
2 | Cc1nc2c(OCc3c(F)cccc3F)cccn2c1C(=O)NC[C@@H](O)c1ccccc1 [Example 32, 8-[(2,6-difluorobenzyl)oxy]-N-[(2S)-2-hydroxy-2-phenylethyl]-2-methylimidazo[1,2-a]pyridine-3-carboxamide] | 1 µM
3 | Cc1nc2c(OCc3c(F)cccc3F)cccn2c1C(=O)NC[C@H](O)c1ccccc1 [Example 33, 8-[(2,6-difluorobenzyl)oxy]-N-[(2R)-2-hydroxy-2-phenylethyl]-2-methylimidazo[1,2-a]pyridine-3-carboxamide] | 0.3 µM
4 | Cc1nc2c(OCc3c(F)cccc3F)cccn2c1C(=O)NC(C)(C)CO [Example 34, 8-[(2,6-difluorobenzyl)oxy]-N-(1-hydroxy-2-methylpropan-2-yl)-2-methylimidazo[1,2-a]-pyridine-3-carboxamide] | 0.3 µM
5 | Cc1nc2c(OCc3c(F)cccc3F)cccn2c1C(=O)N[C@@H](CO)C(C)(C)C [Example 35, 8-[(2,6-difluorobenzyl)oxy]-N-[(2R)-1-hydroxy-3,3-dimethylbutan-2-yl]-2-methylimidazo[1,2-a]-pyridine-3-carboxamide] | 0.3 µM
6 | Cc1nc2c(OCc3c(F)cccc3F)cccn2c1C(=O)N[C@@H]1CCC[C@H]1O [Example 36, 8-[(2,6-difluorobenzyl)oxy]-N-[(1R,2R)-2-hydroxycyclopentyl]-2-methylimidazo[1,2-a]-pyridine-3-carboxamide] | 0.1 µM
7 | Cc1nc2c(OCc3c(F)cccc3F)cccn2c1C(=O)N[C@@H]1CCC[C@@H]1O [Example 37, 8-[(2,6-difluorobenzyl)oxy]-N-[(1R,2S)-2-hydroxycyclopentyl]-2-methylimidazo[1,2-a]-pyridine-3-carboxamide] | 0.3 µM
8 | Cc1nc2c(OCc3c(F)cccc3F)cccn2c1C(=O)N[C@@H](CO)Cc1ccccc1 [Example 38, 8-[(2,6-difluorobenzyl)oxy]-N-[(2R)-1-hydroxy-3-phenylpropan-2-yl]-2-methylimidazo[1,2-a]-pyridine-3-carboxamide] | 0.3 µM
9 | Cc1nc2c(OCc3c(F)cccc3F)cccn2c1C(=O)N[C@@H](CO)CC(C)C [Example 39, 8-[(2,6-Difluorobenzyl)oxy]-N-[(2R)-1-hydroxy-4-methylpentan-2-yl]-2-methylimidazo[1,2-a]-pyridine-3-carboxamide] | 0.03 µM
10 | Cc1nc2c(OCc3c(F)cccc3F)cccn2c1C(=O)N[C@H]1c2ccccc2C[C@H]1O [Example 40, 8-[(2,6-difluorobenzyl)oxy]-N-[(1S,2R)-2-hydroxy-2,3-dihydro-1H-inden-1-yl]-2-methylimidazo[1,2-a]pyridine-3-carboxamide] | 0.1 µM
11 | Cc1nc2c(OCc3c(F)cccc3F)cccn2c1C(=O)NCC(C)(C)CO [Example 41, 8-[(2,6-difluorobenzyl)oxy]-N-(3-hydroxy-2,2-dimethylpropyl)-2-methylimidazo[1,2-a]-pyridine-3-carboxamide] | 3 µM
12 | Cc1nc2c(OCc3c(F)cccc3F)cccn2c1C(=O)N[C@H]1CC[C@H](O)CC1 [Example 42, (rac)-8-[(2,6-difluorobenzyl)oxy]-N-(trans-4-hydroxycyclohexyl)-2-methylimidazo[1,2-a]-pyridine-3-carboxamide] | 1 µM
13 | CC[C@H](CO)NC(=O)c1c(C)nc2c(OCc3c(F)cccc3F)cccn12 [Example 43, 8-[(2,6-Difluorobenzyl)oxy]-N-[(2R)-1-hydroxybutan-2-yl]-2-methylimidazo[1,2-a]pyridine-3-carboxamide] | 0.16 µM
14 | CC[C@H](CO)NC(=O)c1c(C)nc2c(OCc3cccc(F)c3F)cccn12 [Example 44, 8-[(2,3-difluorobenzyl)oxy]-N-[(2R)-1-hydroxybutan-2-yl]-2-methylimidazo[1,2-a]-pyridine-3-carboxamide] | 0.3 µM
15 | CC[C@H](CO)NC(=O)c1c(C)nc2c(OCc3cccc(Cl)c3Cl)cccn12 [Example 45, 8-[(2,3-dichlorobenzyl)oxy]-N-[(2R)-1-hydroxybutan-2-yl]-2-methylimidazo[1,2-a]-pyridine-3-carboxamide] | 0.65 µM
16 | Cc1nc2c(OCc3ccccc3)cccn2c1C(=O)N[C@@H](C)CO [Example 46, 8-(Benzyloxy)-N-[(2S)-1-hydroxypropan-2-yl]-2-methylimidazo[1,2-a]pyridine-3-carboxamide] | 3 µM
17 | Cc1nc2c(OCc3cccc(Cl)c3Cl)cccn2c1C(=O)NCCC1(O)CCCC1 [Example 47, 8-[(2,3-dichlorobenzyl)oxy]-N-[2-(1-hydroxycyclopentyl)ethyl]-2-methylimidazo[1,2-a]-pyridine-3-carboxamide] | 0.3 µM
18 | Cc1nc2c(OCc3ccccc3)cccn2c1C(=O)NCCC1(O)CCCC1 [Example 48, 8-(benzyloxy)-N-[2-(1-hydroxycyclopentyl)ethyl]-2-methylimidazo[1,2-a]pyridine-3-carboxamide] | 1 µM

Row | SMILES | minimal effective concentration
19 | Cc1nc2c(OCc3cccc(Cl)c3Cl)cccn2c1C(=O)NC(CO)CO [Example 49, 8-[(2,3-dichlorobenzyl)oxy]-N-(1,3-dihydroxypropan-2-yl)-2-methylimidazo[1,2-a]-pyridine-3-carboxamide] | 2 µM
20 | Cc1nc2c(OCc3ccccc3Cl)cccn2c1C(=O)NC(CO)CO [Example 50, 8-[(2-chlorobenzyl)oxy]-N-(1,3-dihydroxypropan-2-yl)-2-methylimidazo[1,2-a]pyridine-3-carboxamide] | 6.5 µM
21 | Cc1nc2c(OCc3ccccc3F)cccn2c1C(=O)NC(CO)CO [Example 51, N-(1,3-dihydroxypropan-2-yl)-8-[(2-fluorobenzyl)oxy]-2-methylimidazo[1,2-a]pyridine-3-carboxamide] | 5.5 µM
22 | Cc1cccc(COc2cccn3c(C(=O)NC(CO)CO)c(C)nc23)c1Cl [Example 52, 8-[(2-chloro-3-methylbenzyl)oxy]-N-(1,3-dihydroxypropan-2-yl)-2-methylimidazo[1,2-a]-pyridine-3-carboxamide] | 10 µM
23 | Cc1nc2c(OCc3c(Cl)cccc3Cl)cccn2c1C(=O)NC(CO)CO [Example 53, 8-[(2,6-dichlorobenzyl)oxy]-N-(1,3-dihydroxypropan-2-yl)-2-methylimidazo[1,2-a]-pyridine-3-carboxamide] | 10 µM
24 | Cc1nc2c(OCc3ccccc3Br)cccn2c1C(=O)NC(CO)CO [Example 54, 8-[(2-bromobenzyl)oxy]-N-(1,3-dihydroxypropan-2-yl)-2-methylimidazo[1,2-a]pyridine-3-carboxamide] | 10 µM
25 | CCc1nc2c(OCC3CCCCC3)cccn2c1C(=O)N[C@H](C)CO [Example 55, 8-(Cyclohexylmethoxy)-2-ethyl-N-[(2R)-1-hydroxypropan-2-yl]imidazo[1,2-a]pyridine-3-carboxamide formic acid salt] | 0.1 µM
26 | C[C@@H](CO)NC(=O)c1c(C(F)(F)F)nc2c(OCC3CCCCC3)cccn12 [Example 56, 8-(cyclohexylmethoxy)-N-[(2S)-1-hydroxypropan-2-yl]-2-(trifluoromethyl)imidazo[1,2-a]pyridine-3-carboxamide] | 1 µM
27 | CCCc1nc2c(OCC3CCCCC3)cccn2c1C(=O)N[C@@H](C)CO [Example 57, 8-(cyclohexylmethoxy)-N-[(2S)-1-hydroxypropan-2-yl]-2-propylimidazo[1,2-a]-pyridine-3-carboxamide] | 1 µM
28 | CCc1nc2c(OCC3CCC3)cccn2c1C(=O)N[C@@H](C)CO [Example 58, 8-(cyclobutylmethoxy)-2-ethyl-N-[(2S)-1-hydroxypropan-2-yl]imidazo[1,2-a]pyridine-3-carboxamide formic acid salt] | 3 µM
29 | C[C@@H](CO)NC(=O)c1cnc2c(OCC3CCCCC3)cccn12 [Example 59, 8-(cyclohexylmethoxy)-N-[(2S)-1-hydroxypropan-2-yl]imidazo[1,2-a]pyridine-3-carboxamide] | 3 µM
30 | CCCC[C@H](CO)NC(=O)c1c(C)nc2c(OCc3c(F)cccc3F)cc(CC)cn12 [Example 60, 8-[(2,6-difluorobenzyl)oxy]-6-ethyl-N-[(2R)-1-hydroxyhexan-2-yl]-2-methylimidazo[1,2-a]pyridine-3-carboxamide] | 0.1 µM
31 | CCCC[C@H](CO)NC(=O)c1c(C)nc2c(OCc3c(F)cccc3F)cc(C3CC3)cn12 [Example 61, 6-cyclopropyl-8-[(2,6-difluorobenzyl)oxy]-N-[(2R)-1-hydroxyhexan-2-yl]-2-methylimidazo[1,2-a]pyridine-3-carboxamide] | 1 µM
32 | CCCC[C@H](CO)NC(=O)c1cnc2c(OCc3c(F)cccc3F)cccn12 [Example 62, 8-[(2,6-difluorobenzyl)oxy]-N-[(2R)-1-hydroxyhexan-2-yl]imidazo[1,2-a]pyridine-3-carboxamide] | 0.3 µM
33 | CCCC[C@H](CO)NC(=O)c1c(C)nc2c(OCc3c(F)cccc3F)cc(N3CCOCC3)cn12 [Example 63, 8-[(2,6-difluorobenzyl)oxy]-N-[(2R)-1-hydroxyhexan-2-yl]-2-methyl-6-(morpholin-4-yl)imidazo[1,2-a]pyridine-3-carboxamide] | 3 µM
34 | CCCC[C@H](CO)NC(=O)c1c(C)nc2c(OCc3c(F)cccc3F)cc(N3CCCC3)cn12 [Example 64, 8-[(2,6-difluorobenzyl)oxy]-N-[(2R)-1-hydroxyhexan-2-yl]-2-methyl-6-(pyrrolidin-1-yl)imidazo[1,2-a]pyridine-3-carboxamide] | 3 µM
35 | CCCC[C@H](CO)NC(=O)c1c(C)nc2c(OCc3c(F)cccc3F)cc(Br)cn12 [Example 65, 6-bromo-8-[(2,6-difluorobenzyl)oxy]-N-[(2R)-1-hydroxyhexan-2-yl]-2-methylimidazo[1,2-a]pyridine-3-carboxamide] | 0.03 µM

Reference: patent US8778964B2, “Hydroxy-substituted imidazo[1,2-a]-pyridinecarboxamides and their use” (Bayer Pharma Aktiengesellschaft, priority 2012, dated 2014)
